≈ marks a conversion by molar mass, not a printed value.
Columns and labels:
B. subtilis cells = test: Lactate dehydrogenase release (resofurin fluorescence), lariat ether; assay type: cell-based, Bacillus subtilis; settings: 2 μM, 37° C, lithium lactate/NAD+ solution
Source text: A well-established assay was utilized to measure cell lysis by monitoring the release of the enzyme lactate dehydrogenase (LDH), which is ubiquitous in the cytoplasm of all cell types. The tetrameric active form of LDH catalyzes the final step of the glycolysis in B. subtilis and has a molecular weight of approximately 146 kDa in, with a nearly globular shape of an approximated radius of 80 Å (PDB ID: 3PQD). […] LDH couples two redox reactions, the first involving the interconversion of pyruvate (oxidized) and L-lactate (reduced) and the second, the interconversion of NAD^+ (oxidized) and NADH (reduced). The NADH oxidation can be coupled to the diaphorase-catalyzed […] of resazurin to resofurin, which is highly fluorescent. When the concentrations of L-lactate, NAD^+, diaphorase, and resazurin are saturated, the rate of increase in the resofurin fluorescence is limited only by the amount of available LDH in the medium.
To prepare the experiment, a 2-mL liquid culture of B. subtilis cells was grown at 37° C. in media until OD600=0.600, and then collected by centrifugation at 2000 rpm during 3 min. […] Fluorescence intensity was recorded each second using a Horiba Fluoromax 4 spectrometer (excitation wavelength=550 nm; emission wavelength=583 nm). […] To normalize, the fluorescence was divided by the fluorescence level just before timepoint t4. […]

HEK293T cells = assay type: cell-based; settings: human, 48 h
Protocol: The cyto-toxicity was determined by measuring the minimum inhibitory concentrations (MIC) for this series of dialkylated lariat ethers in the Gram-negative bacteria Escherichia coli, the Gram-positive bacteria Bacillus subtilis, and human embryonic kidney (HEK293T) cells.
On HEK293T cells. Human embryonic kidneys (HEK293T) cells (Thermofisher Scientific) were grown attached in cell culture dishes, detached by trypsin treatment and diluted in Dulbecco's Modified Eagle's Medium (DMEM) medium supplemented with phenol red indicator (Thermofisher scientific) until the density reached 100,000 viable cells/mL. An aliquot of 1 mL of this cell suspension was added to each well of a 24-wells culture plate. After 2 h, when the cells were already attached, a custom amount of 400, 100, 10 or 5 mM TFE solution of the dialkylated diaza(18-crown-6) ether compounds were added until final concentration of 400, 200, 100, 50, 20, 15, 10, 8, 6, 5, 4, 3, 2 or 1 μM were reached. The final TFE concentration never was over 0.1% v/v. Negative controls in the presence of TFE 0.1% v/v or the absence of any treatment were done for each plate. The plates were cultured at 37° C. The MIC was determined as the lowest compound concentration that killed all the cells after 48 h, as judged by trypan blue dye. […]

CCCCCCCCCCN1CCOCCOCCN(CCCCCCCCCC)CCOCCOCC1 [LEC10, Didecyl diaza(18-crown-6)]
resofurin fluorescence (LDH release) (B. subtilis cells): rapid rise in the fluorescence
minimum inhibitory concentration (MIC) (HEK293T cells): 6 µM (≈ 3.26 µg/mL)
